Data set [1] concerns HEK-293. To be noted: HEK-293 with constitutive SEAP expression, 0-3.2 mM, 48 h.
For data set [2], the target named is T1, EthR-VP16 binding to OethR (Mycobacterium bovis, UniProt Q7TVI1). In words: cell-based. The data set is classed as cell-based, M. tuberculosis.
The subject of data set [3] is M. tuberculosis H37Rv. The data set is classed as cell-based.
Data set [4] deals with M. bovis BCG. Type of data set: cell-based.
In data set [5] the target is EthR-OethR interaction (Mycobacterium bovis, UniProt Q7TVI1). The data set is classed as binding, M. tuberculosis. As to conditions: ELISA, E. coli cell lysate, OD450. (In general: ELISA stands for enzyme-linked immunosorbent assay.)
EthR-OethR interaction, sequence (Q7TVI1 whole entry, looked up): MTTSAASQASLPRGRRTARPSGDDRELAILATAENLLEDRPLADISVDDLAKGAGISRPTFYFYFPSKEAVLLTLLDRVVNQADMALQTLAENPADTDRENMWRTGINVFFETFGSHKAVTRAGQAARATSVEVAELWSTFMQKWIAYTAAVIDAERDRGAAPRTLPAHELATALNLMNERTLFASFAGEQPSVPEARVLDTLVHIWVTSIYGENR
Data set [6] concerns E-ETR interaction. The data set is described as follows: Specificity control ELISA, macrolide-dependent repressor E and operator ETR. The data set is classed as binding. As to conditions: ELISA set-up as FIG. 2B. The method, then: To exclude that 2-phenylethyl butyrate indiscriminatingly modulates protein-DNA interactions the macrolide-dependent repressor-operator configuration is challenged with this compound in an identical ELISA set-up as shown in FIG. 2B. The E-ETR interaction is insensitive to 2-phenylethyl butyrate (PEB) and can exclusively be abolished in the presence of erythromycin (EM, 5 μg/ml).
The repressor protein E binds to its cognate operator sequence ETR and is released thereof in the presence of macrolide antibiotics like erythromycin as described in U.S. Pat. No. 7,273,723.
EthR-his6 is produced as previously described for E-his6 [Weber, C. C. et al., supra] with the exception that the biotinylated operator sequence (OethR) is incubated with a 100 μl streptavidin agarose bead suspension (Novagen, Madison, Wis., USA, cat. no. 69203) for 1 h at 4° C. while rotating.

For data set [7] the following is noted: mouse, in vivo, ip.
The target of data set [8] is T1, EthR-VP16 binding to OethR. The data set is classed as in vivo. As to conditions: mice, 625 μl/kg injected 1 and 25 h post implantation, serum at 48 h.
The mark [9] stands for this setting: HEK-293 with EthR-based gene circuit, 0-3.2 mM, 48 h.

“Also recorded” adds a separate entry of the source.

T1 sequence (Q7TVI1 whole entry, looked up): as above

As for `CC(=O)CCc1ccccc1` [4-Phenyl-2-butanone], in data set [1], the cytotoxicity entry was “does not correlate with cytotoxicity”. In addition, in data set [2] (setting [9]), the SEAP expression entry was “significant decrease in SEAP expression”.
In the case of `CCC(=O)OCCCc1ccccc1` [3-Phenylpropyl propionate], the SEAP expression entry in data set [2] (setting [9]) is given as “significant decrease in SEAP expression”.
For `CCCC(=O)OCCc1ccccc1` [2-Phenylethyl butyrate], in data set [3], the “growth inhibition of M. tuberculosis H37Rv in combination with ethionamide” value is given as “dose-dependently inhibited; also recorded: Synergistic effect” and the “growth inhibitory effect alone, M. tuberculosis H37Rv” value is “does not show any growth inhibitory effect”. Further, the “growth inhibition of M. bovis BCG in combination with ethionamide” value in data set [4] (0.5 and 2 mM with sub-inhibitory ethionamide 0.25 and 0.5 μg/ml) was “dose-dependently inhibited; also recorded: Synergistic effect”. Moreover, the “growth inhibitory effect alone, M. bovis BCG” value in data set [4] (without ethionamide) is listed as “does not show any growth inhibitory effect”. Besides, the “modulation of the EthR-OethR interaction” value in data set [5] was “exclusively and specifically modulates the EthR-OethR interaction”. Moreover, the E-ETR interaction entry in data set [6] (2-phenylethyl butyrate) is reported as “insensitive”. In addition, the “inflammation at the injection site” value in data set [7] was “no inflammation at the injection site”. This molecule yielded an IC50 in data set [2] of 500 µM. In data set [2] (setting [9]), the SEAP expression entry is recorded as “significant decrease in SEAP expression”. In addition, the SEAP serum levels in data set [8] was determined as 0.21±0.03 U/L.
As for `CC[C@H]1OC(=O)[C@H](C)[C@@H](O[C@H]2C[C@@](C)(OC)[C@@H](O)[C@H](C)O2)[C@H](C)[C@@H](O[C@@H]2O[C@H](C)C[C@H](N(C)C)[C@H]2O)[C@](C)(O)C[C@@H](C)C(=O)[C@H](C)[C@@H](O)[C@]1(C)O` [erythromycin, reference compound], the E-ETR interaction result in data set [6] (5 μg/ml) is on record as “abolished”.
For the molecule `CCCCCCCCCCCCCCCCOC(=O)CCCCCCC` [Hexadecyl octanoate, reference compound], the SEAP expression entry in data set [2] (HEK-293 containing pWW489 and pWW491, 10 mM) was “fails to decrease SEAP expression”.
As to `CC(=O)OCc1ccccc1` [Benzyl acetate], the SEAP expression result in data set [2] (setting [9]) was “significant decrease in SEAP expression”.

As a reminder, the IC50 is the point on the concentration scale where inhibition reaches its midpoint.

Values taken from patent publication US9050295B2, “Composition for treatment of tuberculosis” (ETH Zurich, priority 2007, dated 2015).
